The record followed here is US20230276794A1, “MESH MATERIALS FOR CONTROLLED RELEASE OF ANTIVIRALS, METHOD AND USE” (priority 2020, published 2023).

This assay relates to Coronavirus (MHV-3 Strain). The class given is cell-based, Coronavirus MHV-3 Strain genus Betacoronavirus. Conditions: concentration of 5%.

Take `N=C(NCCCCCCNC(=N)NC(=N)Nc1ccc(Cl)cc1)NC(=N)Nc1ccc(Cl)cc1` [5% Chlorhexidine, 1,1′-hexamethylene-bis(5-(p-chlorophenyl)-biguanide)]: the “time after which activity was lost” value amounted to 10 min.
